From patent US20260235789A1, “THERAPEUTIC LENSES FOR USE AS OCULAR BANDAGE AND SIMULTANEOUSLY FOR THE ADMINISTRATION OF EYE DROPS” (EYE PHARMA SPA, priority 2021, published 2026)

Tested on: Salmonella typhimurium
Assay: Bacterial proliferation assay (inhibition halo on agar plates)
Type: cell-based
Conditions: before vs after passage through the ionic therapeutic contact lenses; 2×10^9/mL bacteria on agar-coated plates; 24 hours; FIG. 4
Experimental: The influence of lens interaction on the antibacterial effect of chloramphenicol was tested with a bacterial challenge using Salmonella typhimurium seeding 2×10^9/mL bacteria on agar-coated plates. An antibiotic disk was inserted in the middle of the plate to verify the inhibition halo around the dish after 24 hours. Both the chloramphenicol eye drops and the liquid suspending the therapeutic lenses for storage were tested. The antibacterial capacity of chloramphenicol was comparatively tested before and after the passage through the ionic therapeutic contact lenses according to the invention. The diameter of the clear halo around the chloramphenicol depot area (central white spot) was not different.

O=C(N[C@H](CO)[C@H](O)c1ccc([N+](=O)[O-])cc1)C(Cl)Cl [chloramphenicol]
diameter of the clear halo around the chloramphenicol depot area: not different
